pIC50: −log10 of the molar value.
Experiments:
Experiment in all cases: Radiometric protein kinase assay (33PanQinase), Assay Condition A (thiol containing)
Format in all cases: biochemical
CDK7/CycH/MAT1 = CDK7/CycH/MAT1 (Homo sapiens (Human), UniProt P50613); settings: thiol containing (1.2 mM DTT), ATP 3.0 μM
Description: (§1) The IC50 profile of test compounds was determined using three protein kinases.
(§2) The compounds were provided as pre-weighed powders in vials. The compounds were dissolved to 1×10^−02M by adding DMSO. 100 μl of each of the resulting stock solutions were transferred into column 2 of four 96 well “master plates”.
(§3) Prior to testing, the 1×10^−02M stock solutions in column 2 of the master plates were subjected to a serial, semi-logarithmic dilution using 100% DMSO as a solvent. […] Column 1 and 7 were filled with 100% DMSO as controls. Subsequently, 2×10 μl from each well of the serial diluted copy plates were aliquoted with a 96 channel pipettor into two identical sets of “compound dilution plates”.
(§4) In the process, 90 μl H2O were added to each well of a set of compound dilution plates. To minimize potential precipitation, the H2O was added to each plate only a few minutes before the transfer of the compound solutions into the assay plates. Each plate was shaken thoroughly, resulting in a “compound dilution plate/10% DMSO”.
(§5) For the assays, 5 μl solution from each well of the compound dilution plates/10% DMSO were transferred into the assay plates. The final volume of the assay was 50 μl. All compounds were tested at 10 final assay concentrations in the range from 1×10^−04M to 3×10^−09M, in singlicate. The final DMSO concentration in the reaction cocktails was 1% in all cases.
(§6) All protein kinases were expressed in Sf9 insect cells or in E. coli as recombinant GST-fusion proteins or His-tagged proteins, either as full-length or enzymatically active fragments. All kinases were produced from human cDNAs and purified by either GSH-affinity chromatography or immobilized metal. Affinity tags were removed from a number of kinases during purification. The purity of the protein kinases was examined by SDS-PAGE/Coomassie staining, the identity was checked by mass spectroscopy.
(§7) A radiometric protein kinase assay (^33PanQinase® Activity Assay) was used for measuring the kinase activity of the three protein kinases. All kinase assays were performed in 96-well FlashPlates™ from PerkinElmer (Boston, Mass., USA) in a 50 μl reaction volume. The reaction cocktail was pipetted in four steps in the following order: • 20 μl of assay buffer (standard buffer) • 5 μl of ATP solution (in H2O) • 5 μl of test compound (in 10% DMSO) • 20 μl enzyme/substrate mix
(§8) The reaction cocktails were incubated at 30° C. for 60 minutes. The reaction was stopped with 50 μl of 2% (v/v) H3PO4, plates were aspirated and washed two times with 200 μl 0.9% (w/v) NaCl. Incorporation of ^33Pi was determined with a microplate scintillation counter (Microbeta, Wallac). All assays were performed with a BeckmanCoulter/SAGIAN™ Core System.
(§9) The median value of the counts in column 1 (n=8) of each assay plate was defined as “low control”. This value reflects unspecific binding of radioactivity to the plate in the absence of a protein kinase but in the presence of the substrate. The median value of the counts in column 7 of each assay plate (n=8) was taken as the “high control”, i.e. full activity in the absence of any inhibitor. The difference between high and low control was taken as 100% activity.
(§10) As part of the data evaluation the low control value from a particular plate was subtracted from the high control value as well as from all 80 “compound values” of the corresponding plate. The residual activity (in %) for each well of a particular plate was calculated by using the following formula: Res. Activity (%)=100×[(cpm of compound−low control)/(high control−low control)]
(§11) The residual activities for each concentration and the compound IC50 values were calculated using Quattro Workflow V3.1.1 (Quattro Research GmbH, Munich, Germany). […] The fitting method used was a least-squares fit.

CDK2/CycA2 = CDK2/CycA2 (Homo sapiens (Human), UniProt P24941); settings: thiol containing (1.2 mM DTT), ATP 0.3 μM
Description: as §1, §2, §3, §4, §5, §6, §7, §8, §9, §10, §11

CDK12 wt/CycK = CDK12 wt/CycK (Homo sapiens (Human), UniProt Q9NYV4); settings: thiol containing (1.2 mM DTT), ATP 0.3 μM
Description: as §1, §2, §3, §4, §5, §6, §7, §8, §9, §10, §11

CDK7/CycH/MAT1, sequence (P50613 whole entry): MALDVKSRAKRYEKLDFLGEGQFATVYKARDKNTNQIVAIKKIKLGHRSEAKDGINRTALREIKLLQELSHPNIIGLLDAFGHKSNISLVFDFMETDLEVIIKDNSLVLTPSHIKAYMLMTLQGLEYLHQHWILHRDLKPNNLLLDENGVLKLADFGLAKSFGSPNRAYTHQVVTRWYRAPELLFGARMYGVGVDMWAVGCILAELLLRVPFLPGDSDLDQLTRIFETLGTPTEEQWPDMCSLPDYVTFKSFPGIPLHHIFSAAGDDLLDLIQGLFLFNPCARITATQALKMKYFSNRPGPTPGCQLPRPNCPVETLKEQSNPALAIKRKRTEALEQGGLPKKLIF
CDK7/CycH/MAT1, sequence (P51946 whole entry partner): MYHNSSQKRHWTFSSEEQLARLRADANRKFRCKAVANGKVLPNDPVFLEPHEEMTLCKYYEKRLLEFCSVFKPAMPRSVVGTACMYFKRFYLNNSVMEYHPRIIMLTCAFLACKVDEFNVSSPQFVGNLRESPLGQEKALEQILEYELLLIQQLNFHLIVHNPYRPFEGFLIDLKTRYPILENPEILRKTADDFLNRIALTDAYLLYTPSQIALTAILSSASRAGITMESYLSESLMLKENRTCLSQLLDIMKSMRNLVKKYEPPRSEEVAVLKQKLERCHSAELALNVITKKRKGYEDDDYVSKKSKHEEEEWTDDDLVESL
CDK7/CycH/MAT1, sequence (P51948 whole entry partner): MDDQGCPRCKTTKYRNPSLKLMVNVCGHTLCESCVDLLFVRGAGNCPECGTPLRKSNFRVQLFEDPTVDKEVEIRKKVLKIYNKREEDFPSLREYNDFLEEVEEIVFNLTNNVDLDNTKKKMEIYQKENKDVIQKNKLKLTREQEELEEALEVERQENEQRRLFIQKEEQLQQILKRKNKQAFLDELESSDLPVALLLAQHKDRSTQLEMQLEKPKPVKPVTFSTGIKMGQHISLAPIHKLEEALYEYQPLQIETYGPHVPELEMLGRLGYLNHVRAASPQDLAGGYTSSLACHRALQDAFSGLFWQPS
CDK12 wt/CycK, sequence (Q9NYV4 whole entry): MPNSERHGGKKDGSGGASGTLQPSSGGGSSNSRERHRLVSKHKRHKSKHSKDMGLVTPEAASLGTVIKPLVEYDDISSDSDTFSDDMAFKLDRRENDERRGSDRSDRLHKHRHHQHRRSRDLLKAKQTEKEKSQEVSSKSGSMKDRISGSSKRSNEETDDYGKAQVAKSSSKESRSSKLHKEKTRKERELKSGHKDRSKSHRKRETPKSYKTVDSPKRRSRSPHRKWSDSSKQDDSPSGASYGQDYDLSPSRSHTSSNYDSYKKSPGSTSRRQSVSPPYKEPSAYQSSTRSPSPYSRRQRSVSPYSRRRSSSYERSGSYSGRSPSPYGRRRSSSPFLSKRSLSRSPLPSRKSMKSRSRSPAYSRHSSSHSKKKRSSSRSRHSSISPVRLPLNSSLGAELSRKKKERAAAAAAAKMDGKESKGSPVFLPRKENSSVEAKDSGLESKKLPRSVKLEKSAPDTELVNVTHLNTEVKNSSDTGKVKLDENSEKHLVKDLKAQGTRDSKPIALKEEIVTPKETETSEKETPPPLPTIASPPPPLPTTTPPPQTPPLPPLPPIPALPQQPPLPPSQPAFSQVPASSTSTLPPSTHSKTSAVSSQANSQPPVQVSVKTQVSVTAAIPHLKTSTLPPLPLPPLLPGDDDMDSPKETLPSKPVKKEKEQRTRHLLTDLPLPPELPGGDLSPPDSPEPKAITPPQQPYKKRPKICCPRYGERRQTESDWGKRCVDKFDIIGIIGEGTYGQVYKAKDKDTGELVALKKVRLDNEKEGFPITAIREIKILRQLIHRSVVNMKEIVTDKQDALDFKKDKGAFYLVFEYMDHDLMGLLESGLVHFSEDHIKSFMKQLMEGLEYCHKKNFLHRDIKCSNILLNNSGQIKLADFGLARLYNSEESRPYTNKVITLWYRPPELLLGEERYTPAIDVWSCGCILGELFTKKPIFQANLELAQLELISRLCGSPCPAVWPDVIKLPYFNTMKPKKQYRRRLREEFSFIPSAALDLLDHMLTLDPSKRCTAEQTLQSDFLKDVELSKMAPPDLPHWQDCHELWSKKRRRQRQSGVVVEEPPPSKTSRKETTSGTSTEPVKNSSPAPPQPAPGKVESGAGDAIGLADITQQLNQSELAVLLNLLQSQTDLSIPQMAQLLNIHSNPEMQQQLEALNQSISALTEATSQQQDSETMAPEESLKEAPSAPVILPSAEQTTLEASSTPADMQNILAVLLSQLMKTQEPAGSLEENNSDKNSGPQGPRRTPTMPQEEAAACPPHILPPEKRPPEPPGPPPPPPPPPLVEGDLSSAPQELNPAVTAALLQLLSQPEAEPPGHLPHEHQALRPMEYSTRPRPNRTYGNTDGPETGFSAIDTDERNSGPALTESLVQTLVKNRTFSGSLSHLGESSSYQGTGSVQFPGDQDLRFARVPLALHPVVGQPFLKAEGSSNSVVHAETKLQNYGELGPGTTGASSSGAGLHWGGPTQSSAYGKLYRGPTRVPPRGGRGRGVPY
CDK12 wt/CycK, sequence (O75909 whole entry partner): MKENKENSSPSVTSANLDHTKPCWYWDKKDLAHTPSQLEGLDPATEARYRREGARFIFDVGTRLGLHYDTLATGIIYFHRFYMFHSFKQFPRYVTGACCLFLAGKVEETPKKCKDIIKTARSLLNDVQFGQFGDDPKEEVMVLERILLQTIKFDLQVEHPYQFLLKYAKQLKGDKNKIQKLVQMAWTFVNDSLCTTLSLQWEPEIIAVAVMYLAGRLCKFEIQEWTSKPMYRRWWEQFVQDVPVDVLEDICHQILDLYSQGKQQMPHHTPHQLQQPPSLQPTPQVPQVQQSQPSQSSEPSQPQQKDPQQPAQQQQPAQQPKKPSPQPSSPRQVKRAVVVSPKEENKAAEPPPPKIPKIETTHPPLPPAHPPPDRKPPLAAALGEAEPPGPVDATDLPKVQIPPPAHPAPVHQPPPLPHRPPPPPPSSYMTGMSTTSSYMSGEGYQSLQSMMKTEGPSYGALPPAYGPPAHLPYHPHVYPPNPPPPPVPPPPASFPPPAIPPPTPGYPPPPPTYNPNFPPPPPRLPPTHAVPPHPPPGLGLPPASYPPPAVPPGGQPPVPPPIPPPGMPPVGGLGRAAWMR

C=CC(=O)Nc1ccc(C(=O)N2CCC[C@@H](Nc3ncc4cc(C)ccc4n3)C2)cc1 [Example 8, (R)-N-(4-(3-((6-methylquinazolin-2-yl)amino)piperidine-1-carbonyl)phenyl)acrylamide]
pIC50 (CDK7/CycH/MAT1): 4.00 to 4.52
pIC50 (CDK2/CycA2): 4.00 to 4.52
pIC50 (CDK12 wt/CycK): 4.52 to 5.00

C=CC(=O)Nc1ccc(C(=O)N2CCC[C@@H](Nc3ncc4ccc(C)cc4n3)C2)cc1 [Example 9, (R)-N-(4-(3-((7-methylquinazolin-2-yl)amino)piperidine-1-carbonyl)phenyl)acrylamide]
pIC50 (CDK7/CycH/MAT1): 4.00 to 4.52
pIC50 (CDK2/CycA2): 4.00 to 4.52
pIC50 (CDK12 wt/CycK): 4.52 to 5.00

C=CC(=O)Nc1ccc(C(=O)N2CCC[C@@H](Nc3ncc4ccc(Cl)cc4n3)C2)cc1 [Example 10, (R)-N-(4-(3-((7-chloroquinazolin-2-yl)amino)piperidine-1-carbonyl)phenyl)acrylamide]
pIC50 (CDK7/CycH/MAT1): 4.00 to 4.52
pIC50 (CDK2/CycA2): 4.00 to 4.52
pIC50 (CDK12 wt/CycK): 5.00 to 6.00

C=CC(=O)Nc1ccc(C(=O)N2CCC[C@@H](Nc3ncc4ccc(S(C)(=O)=O)cc4n3)C2)cc1 [Example 11, (R)-N-(4-(3-((7-(methylsulfonyl)quinazolin-2-yl)amino)piperidine-1-carbonyl)phenyl)acrylamide]
pIC50 (CDK7/CycH/MAT1): 4.00 to 4.52
pIC50 (CDK2/CycA2): 4.52 to 5.00
pIC50 (CDK12 wt/CycK): 5.00 to 6.00

C=CC(=O)Nc1ccc(C(=O)N2CCC[C@@H](Nc3ncc4ccc(C(N)=O)cc4n3)C2)cc1 [Example 13, (R)-2-((1-(4-acrylamidobenzoyl)piperidin-3-yl)amino)quinazoline-7-carboxamide]
pIC50 (CDK7/CycH/MAT1): 4.52 to 5.00
pIC50 (CDK2/CycA2): 5.00 to 6.00
pIC50 (CDK12 wt/CycK): 6.00 to 7.00

C=CC(=O)Nc1ccc(C(=O)N2CCC[C@@H](Nc3ncc4ccc(C(=O)O)cc4n3)C2)cc1 [Example 14, (R)-2-((1-(4-acrylamidobenzoyl)piperidin-3-yl)amino)quinazoline-7-carboxylic acid]
pIC50 (CDK7/CycH/MAT1): 4.52 to 5.00
pIC50 (CDK2/CycA2): 5.00 to 6.00
pIC50 (CDK12 wt/CycK): 6.00 to 7.00

C=CC(=O)Nc1ccc(C(=O)N2CCC[C@@H](Nc3ncc4ccc(=O)n(C(C)C)c4n3)C2)cc1 [Example 15, (R)-N-(4-(3-((8-isopropyl-7-oxo-7,8-dihydropyrido[2,3-d]pyrimidin-2-yl)amino)piperidine-1-carbonyl)phenyl)acrylamide]
pIC50 (CDK7/CycH/MAT1): 4.00 to 4.52
pIC50 (CDK2/CycA2): 4.52 to 5.00
pIC50 (CDK12 wt/CycK): 5.00 to 6.00

C=CC(=O)Nc1ccc(C(=O)N2CCC[C@@H](Nc3ncc4ccc(=O)[nH]c4n3)C2)cc1 [Example 16, (R)-N-(4-(3-((7-oxo-7,8-dihydropyrido[2,3-d]pyrimidin-2-yl)amino)piperidine-1-carbonyl)phenyl)acrylamide]
pIC50 (CDK7/CycH/MAT1): 4.00 to 4.52
pIC50 (CDK2/CycA2): 4.00 to 4.52
pIC50 (CDK12 wt/CycK): 4.52 to 5.00

CCC(=O)Nc1ccc(C(=O)N2CCC[C@@H](Nc3ncc4ccccc4n3)C2)cc1 [Example 17, (R)-N-(4-(3-(quinazolin-2-ylamino)piperidine-1-carbonyl)phenyl)propionamide]
pIC50 (CDK7/CycH/MAT1): 4.00 to 4.52
pIC50 (CDK2/CycA2): 4.00 to 4.52
pIC50 (CDK12 wt/CycK): 4.00 to 4.52

CCC(=O)Nc1ccc(C(=O)N2CCC[C@@H](Nc3cc4ccccc4cn3)C2)cc1 [Example 18, (R)-N-(4-(3-(isoquinolin-3-ylamino)piperidine-1-carbonyl)phenyl)propionamide]
pIC50 (CDK7/CycH/MAT1): 4.00 to 4.52
pIC50 (CDK2/CycA2): 4.00 to 4.52
pIC50 (CDK12 wt/CycK): 4.52 to 5.00

CCC(=O)Nc1ccc(C(=O)N2CCC[C@@H](Nc3ncc4cc(Cl)ccc4n3)C2)cc1 [Example 19, (R)-N-(4-(3-((6-chloroquinazolin-2-yl)amino)piperidine-1-carbonyl)phenyl)propionamide]
pIC50 (CDK7/CycH/MAT1): 4.00 to 4.52
pIC50 (CDK2/CycA2): 4.00 to 4.52
pIC50 (CDK12 wt/CycK): 4.00 to 4.52

CCC(=O)Nc1ccc(C(=O)N2CCC[C@@H](Nc3ncc4ccc(OC)cc4n3)C2)cc1 [Example 20, (R)-N-(4-(3-((7-methoxyquinazolin-2-yl)amino)piperidine-1-carbonyl)phenyl)propionamide]
pIC50 (CDK7/CycH/MAT1): 4.00 to 4.52
pIC50 (CDK2/CycA2): 4.00 to 4.52
pIC50 (CDK12 wt/CycK): 4.00 to 4.52

CCC(=O)Nc1ccc(C(=O)N2CCC[C@@H](Nc3ncc4ccc(S(C)(=O)=O)cc4n3)C2)cc1 [Example 21, (R)-N-(4-(3-((7-(methylsulfonyl)quinazolin-2-yl)amino)piperidine-1-carbonyl)phenyl)propionamide]
pIC50 (CDK7/CycH/MAT1): 4.00 to 4.52
pIC50 (CDK2/CycA2): 4.52 to 5.00
pIC50 (CDK12 wt/CycK): 4.52 to 5.00

CCC(=O)Nc1ccc(C(=O)N2CCC[C@@H](Nc3ncc4ccc(Cl)cc4n3)C2)cc1 [Example 22, (R)-N-(4-(3-((7-chloroquinazolin-2-yl)amino)piperidine-1-carbonyl)phenyl)propionamide]
pIC50 (CDK7/CycH/MAT1): 4.00 to 4.52
pIC50 (CDK2/CycA2): 4.00 to 4.52
pIC50 (CDK12 wt/CycK): 4.00 to 4.52

CCC(=O)Nc1ccc(C(=O)N2CCC[C@@H](Nc3ncc4ccc(F)cc4n3)C2)cc1 [Example 23, (R)-N-(4-(3-((7-fluoroquinazolin-2-yl)amino)piperidine-1-carbonyl)phenyl)propionamide]
pIC50 (CDK7/CycH/MAT1): 4.00 to 4.52
pIC50 (CDK2/CycA2): 4.00 to 4.52
pIC50 (CDK12 wt/CycK): 4.00 to 4.52

CCC(=O)Nc1ccc(C(=O)N2CCC[C@@H](Nc3ncc4ccc(=O)n(C(C)C)c4n3)C2)cc1 [Example 24, (R)-N-(4-(3-((8-isopropyl-7-oxo-7,8-dihydropyrido[2,3-d]pyrimidin-2-yl)amino)piperidine-1-carbonyl)phenyl)propionamide]
pIC50 (CDK7/CycH/MAT1): 4.00 to 4.52
pIC50 (CDK2/CycA2): 4.52 to 5.00
pIC50 (CDK12 wt/CycK): 4.52 to 5.00

C=CC(=O)Nc1ccc(C(=O)N2CC[C@@H](Nc3ncc4cc(Cl)ccc4n3)C2)cc1 [Example 25, (R)-N-(4-(3-((6-chloroquinazolin-2-yl)amino)pyrrolidine-1-carbonyl)phenyl)acrylamide]
pIC50 (CDK7/CycH/MAT1): 5.00 to 6.00
pIC50 (CDK2/CycA2): 6.00 to 7.00
pIC50 (CDK12 wt/CycK): ≥ 7.00

C=CC(=O)Nc1ccc(C(=O)N2CC[C@@H](Nc3ncc4cc(OC)ccc4n3)C2)cc1 [Example 29, (R)-N-(4-(3-((6-methoxyquinazolin-2-yl)amino)pyrrolidine-1-carbonyl)phenyl)acrylamide]
pIC50 (CDK7/CycH/MAT1): 4.00 to 4.52
pIC50 (CDK2/CycA2): 4.52 to 5.00
pIC50 (CDK12 wt/CycK): 6.00 to 7.00

C=CC(=O)Nc1ccc(C(=O)N2CC[C@@H](Nc3ncc4cc(C)ccc4n3)C2)cc1 [Example 30, (R)-N-(4-(3-((6-methylquinazolin-2-yl)amino)pyrrolidine-1-carbonyl)phenyl)acrylamide]
pIC50 (CDK7/CycH/MAT1): 5.00 to 6.00
pIC50 (CDK2/CycA2): 5.00 to 6.00
pIC50 (CDK12 wt/CycK): 6.00 to 7.00

C=CC(=O)Nc1ccc(C(=O)N2CC[C@@H](Nc3ncc4ccncc4n3)C2)cc1 [Example 31, (R)-N-(4-(3-(pyrido[3,4-d]pyrimidin-2-ylamino)pyrrolidine-1-carbonyl)phenyl)acrylamide]
pIC50 (CDK7/CycH/MAT1): 5.00 to 6.00
pIC50 (CDK2/CycA2): 6.00 to 7.00
pIC50 (CDK12 wt/CycK): ≥ 7.00

C=CC(=O)Nc1ccc(C(=O)N2CC[C@@H](Nc3ncc4ccc(C)cc4n3)C2)cc1 [Example 32, (R)-N-(4-(3-((7-methylquinazolin-2-yl)amino)pyrrolidine-1-carbonyl)phenyl)acrylamide]
pIC50 (CDK7/CycH/MAT1): 5.00 to 6.00
pIC50 (CDK2/CycA2): 6.00 to 7.00
pIC50 (CDK12 wt/CycK): ≥ 7.00

C=CC(=O)Nc1ccc(C(=O)N2CC[C@@H](Nc3ncc4ccc(F)cc4n3)C2)cc1 [Example 35, (R)—N-(4-(3-((7-fluoroquinazolin-2-yl)amino)pyrrolidine-1-carbonyl)phenyl)acrylamide]
pIC50 (CDK7/CycH/MAT1): 5.00 to 6.00
pIC50 (CDK2/CycA2): 5.00 to 6.00
pIC50 (CDK12 wt/CycK): ≥ 7.00

C=CC(=O)Nc1ccc(C(=O)N2CC[C@@H](Nc3ncc4ccc(Cl)cc4n3)C2)cc1 [Example 36, (R)—N-(4-(3-((7-chloroquinazolin-2-yl)amino)pyrrolidine-1-carbonyl)phenyl)acrylamide]
pIC50 (CDK7/CycH/MAT1): 5.00 to 6.00
pIC50 (CDK2/CycA2): 6.00 to 7.00
pIC50 (CDK12 wt/CycK): 6.00 to 7.00

C=CC(=O)Nc1ccc(C(=O)N2CC[C@@H](Nc3ncc4ccc(C(=O)O)cc4n3)C2)cc1 [Example 38, (R)-2-((1-(4-acrylamidobenzoyl)pyrrolidin-3-yl)amino)quinazoline-7-carboxylic Acid]
pIC50 (CDK7/CycH/MAT1): 6.00 to 7.00
pIC50 (CDK2/CycA2): ≥ 7.00
pIC50 (CDK12 wt/CycK): ≥ 7.00
